Test results published in patent publication US20220267321A1, “AZAINDOLE PYRAZOLE COMPOUNDS AS CDK9 INHIBITORS” (MEDSHINE DISCOVERY INC., priority 2019, published 2022).
Counter-ions that a name gives are not always drawn.

Columns and labels:
CDK9/CyclinT1 = biological target: T1, CDK9/CyclinT1 (Homo sapiens, UniProt P50750); test: In vitro CDK9/CyclinT1 enzyme activity test (ADP-Glo); format: biochemical; conditions: 100 μM ATP, 25° C., 120 minutes
T1 construct: purchased Carna
Procedure: CDK9/CyclinT1 kinase was purchased from Carna, ADP-Glo detection kit was purchased from Promega, and PKDTide substrate and kinase reaction buffer were purchased from Signalchem. Nivo multi-label analyzer (PerkinElmer).
The kinase buffer in the kit was used to dilute the enzyme, substrate, adenosine triphosphate and inhibitors.
The compound to be tested was diluted by 5 times for 8 concentrations with a discharge gun, ie., dilution from 50 μM to 0.65 nM, with a DMSO concentration of 5%, and replicated. 1 μL of each concentration gradient of the inhibitor, 2 μL CDK9/CyclinT1 enzyme (4 ng), 2 μL of a mixture of substrate and ATP (100 μM adenosine triphosphate, 0.2 μg/μL substrate) was added to the microplate, and the final concentration gradient of the compound was 10 μM dilution to 0.13 nM. The reaction system was placed at 25° C. for 120 minutes. After the reaction, 5 μL of ADP-Glo reagent was added to each well, and the reaction was allowed to continue at 25° C. for 40 minutes. After the reaction, 10 μL of kinase detection reagent was added to each well. After reacting at 25° C. for 30 minutes, a multi-label analyzer was used to read chemiluminescence. The integration time was 0.5 seconds.
Table 1 provides the enzymatic inhibitory activity of the compounds of the present invention on CDK9/CyclinT1.

CDK2/CyclinE1 = biological target: T2, CDK2/CyclinE1 (Homo sapiens, UniProt P24941); test: In vitro CDK2/CyclinE1 enzyme activity test (ADP-Glo); format: biochemical; conditions: 150 μM ATP, 25° C., 60 minutes
T2 construct: purchased Promega
Procedure: CDK2/CyclinE1 kinase detection kit was purchased from Promega. Nivo multi-label analyzer (PerkinElmer).
(§1) Using the kinase buffer in the kit to dilute the enzyme, substrate, adenosine triphosphate and inhibitor.
The compound to be tested was diluted 5-fold to the 8th concentration with a discharge gun, that is, diluted from 50 μM to 0.65 nM, with a DMSO concentration of 5%, and replicated. Add 1 μL of each inhibitor concentration gradient, 2 μL CDK2/CyclinE1 enzyme (2 ng), 2 μL mixture of substrate and ATP (150 μM adenosine triphosphate, 0.1 μg/μL substrate) to the microplate, and the final concentration gradient of the compound is 10 μM dilution to 0.13 nM. The reaction system was placed at 25° C. for 60 minutes. After the reaction, add 5 μL of ADP-Glo reagent to each well, and continue the reaction at 25° C. for 40 minutes. After the reaction, add 10 μL of kinase detection reagent to each well. After reacting at 25° C. for 30 minutes, use a multi-label analyzer to read chemiluminescence. The integration time is 0.5 seconds.
Table 1 provides the CDK2/CyclinE1 enzymatic inhibitory activity of the compounds of the present invention.

MV-4-11 cells = test: In vitro cell activity test, MV-4-11 proliferation (CellTiter-Glo); format: cell-based; conditions: Homo sapiens, MV4-11, 72 h, 3 days incubation
Procedure: IMDM medium, fetal bovine serum, penicillin/streptomycin antibiotics were purchased from Promega (Madison, Wis.). The MV-4-11 cell line was purchased from the Cell Bank of the Chinese Academy of Sciences. Nivo multi-label analyzer (PerkinElmer).
Plant MV-4-11 cells in a white 96-well plate, 80 μL of cell suspension per well, which contains 6000 MV-4-11 cells. The cell plate was cultured overnight in a carbon dioxide incubator.
The compound to be tested was diluted 5-fold to the 8th concentration with a discharge gun, that is, diluted from 2 mM to 26 nM, and replicated. Add 78 μL of culture medium to the middle plate, and then transfer 2 μL of each well of the gradient dilution compound to the middle plate according to the corresponding position, and transfer 20 μL of each well to the cell plate after mixing. The final concentration of the compound is 10 μM to 0.13 nM. The cell plate was placed in a carbon dioxide incubator for 3 days.
Add 25 μL of Promega CellTiter-Glo reagent per well to the cell plate and incubate at room temperature for 10 minutes to stabilize the luminescence signal. Use PerkinElmer Nivo multi-label analyzer to read.

CDK1/CyclinB1 = biological target: T3, CDK1/CyclinB1 (Homo sapiens, UniProt P06493); test: In vitro CDK1/CyclinB1 enzyme activity test (ADP-Glo); format: biochemical; conditions: 25 μM ATP, 25° C., 120 minutes
T3 construct: purchased Promega
T3 sequence (P06493 whole entry): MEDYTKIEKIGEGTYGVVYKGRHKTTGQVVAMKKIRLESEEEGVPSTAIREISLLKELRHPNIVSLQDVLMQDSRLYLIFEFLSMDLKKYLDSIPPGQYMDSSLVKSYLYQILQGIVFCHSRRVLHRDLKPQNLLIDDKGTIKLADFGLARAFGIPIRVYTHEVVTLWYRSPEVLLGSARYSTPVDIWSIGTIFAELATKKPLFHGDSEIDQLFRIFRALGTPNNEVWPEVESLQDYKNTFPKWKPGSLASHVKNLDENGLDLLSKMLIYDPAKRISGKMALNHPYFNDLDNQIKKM
T3 sequence (P14635 whole entry partner): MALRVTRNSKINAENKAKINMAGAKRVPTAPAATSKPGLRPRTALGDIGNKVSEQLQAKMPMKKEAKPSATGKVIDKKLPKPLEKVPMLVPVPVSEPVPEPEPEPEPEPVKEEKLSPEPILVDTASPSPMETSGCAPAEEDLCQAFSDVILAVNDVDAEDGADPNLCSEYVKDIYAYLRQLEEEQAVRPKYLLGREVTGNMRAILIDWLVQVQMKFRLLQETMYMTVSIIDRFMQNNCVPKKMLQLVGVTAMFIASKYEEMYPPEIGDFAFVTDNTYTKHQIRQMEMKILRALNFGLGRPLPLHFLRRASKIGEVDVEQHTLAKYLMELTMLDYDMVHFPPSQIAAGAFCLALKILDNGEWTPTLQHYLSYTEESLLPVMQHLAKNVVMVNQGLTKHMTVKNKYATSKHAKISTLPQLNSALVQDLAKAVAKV
Procedure: CDK1/CyclinB1 kinase detection kit was purchased from Promega. Nivo multi-label analyzer (PerkinElmer).
as §1
The compound to be tested was diluted 5-fold to the 8th concentration with a discharge gun, that is, diluted from 50 μM to 0.65 nM, with a DMSO concentration of 5%, and replicated. Add 1 μL of each inhibitor concentration gradient, 2 μL CDK1/CyclinB1 enzyme (12.5 ng), 2 μL mixture of substrate and ATP (25 μM adenosine triphosphate, 0.2 μg/μL substrate) into the microplate, and the final concentration gradient of the compound is 10 μM dilute to 0.13 nM. The reaction system was placed at 25° C. for 120 minutes. After the reaction, add 5 μL of ADP-Glo reagent to each well, and continue the reaction at 25° C. for 40 minutes. After the reaction, add 10 μL of kinase detection reagent to each well. After reacting at 25° C. for 30 minutes, use a multi-label analyzer to read chemiluminescence. The integration time is 0.5 seconds.
Table 1 provides the CDK1/CyclinB1 enzymatic inhibitory activity of the compounds of the present invention.

[1] = tested on: MV4-1 acute myeloid leukemia xenograft (CDX); test: In vivo drug efficacy study (2), MV4-11 CDX model; conditions: 10 mg/kg injected weekly; for Tumor Volume Day 0: Day 0 (start of administration)
Procedure: In vivo drug efficacy experiments were performed on human-derived tumor cell line-based xenograft (CDX) BALB/c nude mice derived from patients with MV4-1 acute myeloid leukemia subcutaneously implanted.
(§2) Female 6- to 8-week old BALB/c nude mice which weighed about 18-22 g were kept in separate ventilated cages (3 mice per cage) in a special pathogen-free environment. All the cages, matts and water were disinfected before use. All the animals had free access to standard certified commercial laboratory diet. A total of 36 mice were purchased from Shanghai Lingchang biological science and technology Co., LTD. for study. Each mouse was subcutaneously implanted with tumor cells in the right next abdomen (10×10^6 in 0.2 mL of phosphate buffer) for tumor growth. The administration started when the average tumor volume reached approximately 121 cubic millimeters. The test compound was injected weekly at a dose of 10 mg/kg. The tumor volumes were measured with a two-dimensional caliper twice a week, and the volumes were expressed in cubic millimeters and calculated by the formula: V=0.5a×b^2, where a and b were the major diameter and the minor diameter of the tumor, respectively. Antitumor efficacy was determined by dividing an average increase of the tumor volumes of the animals treated with the compounds by an average increase of the tumor volumes of the untreated animals.

[2] = background; cited from earlier work
[3] = tested on: MV4-11 acute myeloid leukemia xenograft (CDX); test: In vivo drug efficacy study (1), MV4-11 CDX model; conditions: 15 mg/kg injected weekly; for Tumor Volume Day 0: Day 0 (start of administration)
Procedure: In vivo drug efficacy experiments were performed on human-derived tumor cell line-based xenograft (CDX) BALB/c nude mice derived from patients with MV4-11 acute myeloid leukemia subcutaneously implanted.
as §2, with “of 30” for “of 36”, “approximately 110” for “approximately 121”, “of 15” for “of 10”

[4] = clinical research, background; cited from earlier work

T1 sequence (P50750 whole entry): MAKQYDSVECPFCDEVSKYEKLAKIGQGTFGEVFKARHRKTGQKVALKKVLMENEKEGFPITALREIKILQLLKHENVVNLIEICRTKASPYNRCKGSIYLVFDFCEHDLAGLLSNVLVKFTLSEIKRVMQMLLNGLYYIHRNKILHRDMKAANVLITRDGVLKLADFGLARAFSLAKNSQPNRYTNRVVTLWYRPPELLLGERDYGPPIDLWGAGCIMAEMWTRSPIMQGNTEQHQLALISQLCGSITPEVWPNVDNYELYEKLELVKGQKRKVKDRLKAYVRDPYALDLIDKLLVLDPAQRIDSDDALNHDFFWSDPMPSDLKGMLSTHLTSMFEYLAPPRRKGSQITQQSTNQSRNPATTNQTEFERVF
T1 sequence (O60563 whole entry partner): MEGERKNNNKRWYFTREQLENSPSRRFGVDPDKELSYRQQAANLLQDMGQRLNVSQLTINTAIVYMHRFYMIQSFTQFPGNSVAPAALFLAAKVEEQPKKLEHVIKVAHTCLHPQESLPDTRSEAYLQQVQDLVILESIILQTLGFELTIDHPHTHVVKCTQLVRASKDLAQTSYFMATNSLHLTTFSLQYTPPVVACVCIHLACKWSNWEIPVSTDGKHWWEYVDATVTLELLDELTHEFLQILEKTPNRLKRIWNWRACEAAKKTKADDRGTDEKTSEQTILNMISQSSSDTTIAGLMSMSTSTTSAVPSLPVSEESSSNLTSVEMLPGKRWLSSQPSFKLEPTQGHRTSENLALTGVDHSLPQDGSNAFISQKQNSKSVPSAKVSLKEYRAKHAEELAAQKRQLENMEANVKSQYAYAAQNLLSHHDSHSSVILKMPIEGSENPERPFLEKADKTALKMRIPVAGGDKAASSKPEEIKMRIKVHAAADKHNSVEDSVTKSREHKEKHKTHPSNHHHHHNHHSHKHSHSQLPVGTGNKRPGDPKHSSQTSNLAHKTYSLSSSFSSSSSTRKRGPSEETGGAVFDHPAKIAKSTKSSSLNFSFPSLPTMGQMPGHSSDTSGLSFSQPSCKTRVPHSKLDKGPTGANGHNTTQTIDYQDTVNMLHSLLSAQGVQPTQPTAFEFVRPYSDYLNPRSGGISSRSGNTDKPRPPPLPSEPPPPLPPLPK

| SMILES | IC50 (CDK9/CyclinT1) [nM] | IC50 (CDK2/CyclinE1) [nM] | IC50 (MV-4-11 cells) [nM] | IC50 (CDK1/CyclinB1) [nM] | further results |
| --- | --- | --- | --- | --- | --- |
| Clc1cnc2[nH]c(C3CCNCC3)nc2c1-c1cnn(CC2CC2)c1 [Compound 14] | 38.4 | 1360 | 464 | – | – |
| CC(C)N1CCC(c2cc3c(-c4cnn(CC5CC5)c4)c(Cl)cnc3[nH]2)CC1 [4 (hydrochloride)] | 10.3 | 334 | 94.8 | 756 | – |
| CCN1CCC(c2cc3c(-c4cnn(CC5CC5)c4)c(Cl)cnc3[nH]2)CC1 [Compound 3 (hydrochloride)] | 14.1 | 105 | 7.4 | 416 | – |
| Cn1cc(-c2c(Cl)cnc3[nH]c(C4CCNCC4)cc23)cn1 [Compound 15 (hydrochloride)] | 4.3 | 685 | 34.5 | 824 | Animals' Drug Tolerance [1]: Well; Tumor Volume Day 0 [1]: 121 mm^3; Tumor Volume Day 7 [1]: 87 mm^3; Tumor Volume Day 17 [1]: 74 mm^3; Tumor Volume Day 28 [1]: 332 mm^3 |
| CC(=O)N[C@@H]1CCC[C@H](C(=O)Nc2cc(-c3cnn4c3CC(C)(C)C4)c(Cl)cn2)C1 [AZD4573] | – | 1 | – | 2 | metabolism (in words) [2]: not good; Animals' Drug Tolerance [3]: Well; Tumor Volume Day 0 [3]: 110 mm^3; Tumor Volume Day 7 [3]: 173 mm^3; Tumor Volume Day 17 [3]: 262 mm^3; Tumor Volume Day 28 [3]: 975 mm^3 |
| c1cc(-c2cnn(CC3CC3)c2)c2cc(C3CCNCC3)[nH]c2n1 [Compound 3 (formate)] | 18 | 933 | 252 | 879 | – |
| Clc1cnc2[nH]c(C3CCNCC3)cc2c1-c1cnn(Cc2ccccc2)c1 [Compound 9 (formate)] | 6.3 | 105 | 67.3 | 133 | – |
| Clc1cnc2[nH]c(C3CCNCC3)cc2c1-c1cnn(CC2CC2)c1 [Compound 1 (hydrochloride)] | 7.7 | 112 | 14.7 | 88.7 | Animals' Drug Tolerance [3]: Well; Tumor Volume Day 0 [3]: 110 mm^3; Tumor Volume Day 7 [3]: 109 mm^3; Tumor Volume Day 17 [3]: 42 mm^3; Tumor Volume Day 28 [3]: 107 mm^3; Animals' Drug Tolerance [1]: Well; Tumor Volume Day 0 [1]: 121 mm^3; Tumor Volume Day 7 [1]: 121 mm^3; Tumor Volume Day 17 [1]: 151 mm^3; Tumor Volume Day 28 [1]: 419 mm^3 |
| COc1cc(F)ccc1-c1cc(Nc2cc(CS(C)(=N)=O)ccn2)ncc1F (stereo not shown) [BAY1251152] | – | 193 | 28.2 | 300 | Animals' Drug Tolerance [3]: 5/6 mouse; Tumor Volume Day 0 [3]: 110 mm^3; Tumor Volume Day 7 [3]: 107 mm^3; Tumor Volume Day 17 [3]: 83 mm^3; Tumor Volume Day 28 [3]: 426 mm^3; clinically most important grade 3/4 and dose-limiting adverse side effect [4]: neutropenia |

Continued by falling IC50 (CDK9/CyclinT1), values first:

| IC50 (CDK9/CyclinT1) [nM] | IC50 (CDK2/CyclinE1) [nM] | IC50 (MV-4-11 cells) [nM] | IC50 (CDK1/CyclinB1) [nM] | SMILES | further results |
| --- | --- | --- | --- | --- | --- |
| 10.6 | 235 | 63.8 | 1550 | COCCN1CCC(c2cc3c(-c4cnn(CC5CC5)c4)c(Cl)cnc3[nH]2)CC1 [5 (hydrochloride)] | – |
| 9.6 | 394 | 52 | 1030 | COCC(C)N1CCC(c2cc3c(-c4cnn(CC5CC5)c4)c(Cl)cnc3[nH]2)CC1 (stereo not shown) [Compound 6 (formate)] | – |
| 7.7 | 549 | 286 | 260 | Clc1ccc(Cn2cc(-c3c(Cl)cnc4[nH]c(C5CCNCC5)cc34)cn2)cc1 [Compound 12] | – |
| 7.1 | 75 | 54.6 | 178 | Clc1cnc2[nH]c(C3CCNCC3)cc2c1-c1cnn(CC2CCCC2)c1 [Compound 8 (formate)] | – |
| 7.1 | 79.4 | 35.7 | 255 | CN1CCC(c2cc3c(-c4cnn(CC5CC5)c4)c(Cl)cnc3[nH]2)CC1 [Compound 2 (formate)] | – |
| 6.9 | 549 | 79.1 | 87.9 | Clc1ccccc1Cn1cc(-c2c(Cl)cnc3[nH]c(C4CCNCC4)cc23)cn1 [Compound 10 (formate)] | – |
| 6.4 | 214 | 64.8 | 120 | Clc1cccc(Cn2cc(-c3c(Cl)cnc4[nH]c(C5CCNCC5)cc34)cn2)c1 [Compound 11 (formate)] | – |
| 5.2 | 113 | 86.6 | 366 | Clc1cnc2[nH]c(C3CCNCC3)c(Cl)c2c1-c1cnn(CC2CC2)c1 [Compound 7] | – |
